Data reported in PMC9594046, “Identification of Histone Peptide Binding Specificity and Small-Molecule Ligands for the TRIM33α and TRIM33β Bromodomains” (ACS Chemical Biology, 2022).
Substitutions are numbered along the chain they refer to.

Experiments:
[1] = target: T1, TRIM24 PHD-BRD (Homo sapiens, UniProt O15164); experiment: AlphaScreen dose-response displacement of biotinylated H3 peptide; settings: TRIM24 IC50 (AlphaScreen)
T1 sequence (O15164 with tags, fused parts or gaps): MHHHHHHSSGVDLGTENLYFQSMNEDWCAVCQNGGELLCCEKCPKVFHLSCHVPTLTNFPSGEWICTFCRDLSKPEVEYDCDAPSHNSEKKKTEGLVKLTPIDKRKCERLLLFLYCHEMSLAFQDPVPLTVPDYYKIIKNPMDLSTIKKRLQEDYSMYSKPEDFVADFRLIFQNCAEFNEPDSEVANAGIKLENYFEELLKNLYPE
Method: (§5) To establish an AlphaScreen assay,[13],[50],[51] the PHD-BRD cassettes of TRIM24 and both TRIM33 isoforms were expressed with an N-terminal His6 tag attached (CD spectra for these constructs are shown in Figure S9).
(§6) Assay buffer was freshly prepared each day by supplementing HEPES buffer with BSA, the pH was
(§7) adjusted to 7.6 and filter sterilized through a 0.22 µm filter, and stored at 4 °C until use.
(§8) steps, the plate was sealed, shaken for 10 sec at 600 rpm on a plate oscillator, and incubated at room
(§9) in triplicate, as point concentrations or serial buffer dilutions from 50 mM DMSO solutions.
(§10) peptide mix (7 µL) was dispensed into each well using a Thermo-Fisher electronic multi-channel
(§11) pipette, and incubated for 30 min. AlphaScreen bead mix (8 µL; 25 µg/mL of acceptor and donor beads)
(§12) was added to each well, taking adequate precautions to avoid light exposure, before being incubated for
(§13) 1 h. The plate was read using a Synergy™ 2 MultiMode Microplate Reader using the built-in
(§14) Single shot screening was performed in triplicate.
(§15) <0.5% DMSO. Inhibition is reported as a reduction in signal arising from peptide-bromodomain
(§16) interaction, normalised to a DMSO control. Signal response curves were obtained for peptides or
(§17) compounds in triplicate, with serial 1:2 dilutions. Samples containing buffer or DMSO in place of
(§18) compound were included in all assays for normalisation. Data were processed by fitting a four-
(§19) parameter equation shown below to calculate IC50 values using GraFit version 7.0.32 or GraphPad Prism
(§20) 𝑌 = 𝑀𝑖𝑛𝑖𝑚𝑢𝑚 + 𝑀𝑎𝑥𝑖𝑚𝑢𝑚 − 𝑚𝑖𝑛𝑖𝑚𝑢𝑚 ,𝑤ℎ𝑒𝑟𝑒 𝑋 = log (𝑐𝑜𝑚𝑝𝑜𝑢𝑛𝑑 𝑐𝑜𝑛𝑐𝑒𝑛𝑡𝑟𝑎𝑡𝑖𝑜𝑛) 1 + 10("#$%&!"’()(*+,, .,/01)
(§21) Assay buffer was prepared as above. For incubation steps, the plate was sealed, shaken for 10 sec at
(§22) 600 rpm on a plate oscillator, and incubated at room temperature in the dark. Peptides (5 µL) were
(§23) dilutions from 100 µM HEPES buffer stock solutions. Protein (7 µL) was dispensed into each well
(§24) using a Thermo-Fisher electronic multi-channel pipette, and incubated for 30 min. AlphaScreen bead
(§25) mix (8 µL; 25 µg/mL of acceptor and donor beads) was added to each well, avoiding light exposure,
(§26) before being incubated for 1 h. The plate was read using a Synergy™ 2 MultiMode Microplate Reader
(§27) Ni2+ chelate acceptor and streptavidin donor beads were prepared as a mixture in a 1:300 or 1:400
(§28) dilution as required (0.005–0.007 mg/mL FAC); biotinylated peptide employed, and final assay
(§29) concentrations were as detailed in table below. Assay well volume was 20 µL.
(§30) Peptides were supplied as 1–9 mg quantities with >95% purity (as determined by HPLC; Cambridge
(§31) Research Biochemicals or Genscript). Residual water and counter ions were predicted to comprise 20%
(§32) of the net mass, and peptides were dissolved to 10, 1.0, and 0.1 mM stocks in buffer (50 mM HEPES,
(§33) 500 mM NaCl; pH 7.6) before being stored at -80 °C in 5 µL aliquots. A terminal tyrosine residue was
(§34) incorporated into the peptide structure to allow for accurate quantification of concentration.

[2] = target: T2, TRIM33α PHD-BRD (Homo sapiens, UniProt Q9UPN9); experiment: as above; settings: TRIM33α IC50 (AlphaScreen)
T2 sequence (Q9UPN9 888-1127): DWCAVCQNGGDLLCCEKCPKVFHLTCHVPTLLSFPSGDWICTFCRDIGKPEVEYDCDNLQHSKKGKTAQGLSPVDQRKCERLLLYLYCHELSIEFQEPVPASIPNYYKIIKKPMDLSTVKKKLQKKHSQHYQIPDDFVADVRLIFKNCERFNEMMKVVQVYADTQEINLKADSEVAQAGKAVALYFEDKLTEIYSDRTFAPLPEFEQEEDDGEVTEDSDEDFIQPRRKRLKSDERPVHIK
Method: as §5, §6, §7, §8, §9, §10, §11, §12, §13, §14, §15, §16, §17, §18, §19, §20, §21, §22, §23, §24, §25, §26, §27, §28, §29, §30, §31, §32, §33, §34

[3] = target: T3, TRIM33β PHD-BRD (Homo sapiens, UniProt Q9UPN9); experiment: as above
T3 sequence (Q9UPN9 888-1110 isoform Q9UPN9-2 limits assumed): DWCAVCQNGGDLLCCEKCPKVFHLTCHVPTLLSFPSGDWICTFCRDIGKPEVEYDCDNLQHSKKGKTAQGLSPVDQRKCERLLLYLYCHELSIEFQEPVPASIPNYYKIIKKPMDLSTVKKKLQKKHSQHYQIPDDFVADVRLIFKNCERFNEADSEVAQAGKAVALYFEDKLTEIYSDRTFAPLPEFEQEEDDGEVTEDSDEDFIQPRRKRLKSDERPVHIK
Method: as §5, §6, §7, §8, §9, §10, §11, §12, §13, §14, §15, §16, §17, §18, §19, §20, §21, §22, §23, §24, §25, §26, §27, §28, §29, §30, §31, §32, §33, §34

[4] = target: T4, TRIM24 N980F (Homo sapiens, UniProt O15164, N980F); experiment: Qualitative WaterLOGSY binding; parameters: key: ✓: √ is assigned to compounds that showed binding; ? is assigned when the result was ambiguous; × is assigned when no-binding was observed; settings: 500 µM compound, 20 µM protein
T4 sequence (O15164 825-1007 N980F limits assumed): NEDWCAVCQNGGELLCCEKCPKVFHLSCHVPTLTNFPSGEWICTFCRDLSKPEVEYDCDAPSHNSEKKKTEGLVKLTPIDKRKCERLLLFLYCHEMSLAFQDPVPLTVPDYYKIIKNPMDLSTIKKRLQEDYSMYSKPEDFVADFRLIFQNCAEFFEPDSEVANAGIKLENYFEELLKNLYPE
Method: (§1) To investigate where these compounds bind on the TRIM24 or 33 PHD-BRD cassette, we performed waterLOGSY experiments using the wild-type and mutant reader domains (Table 4).
(§2) Table S19. WaterLOGSY buffer composition (10 mM Na/K phosphate buffer, PBS, pH 7.6).
(§3) Reagent Amount required per litre (g)
(§4) The buffer was filtered under vacuum through a 0.2 µm filter paper (Sartorius UK) before use and stored at 4 °C. Proteins were buffer exchanged from HEPES storage buffer into PBS buffer (0.9% NaCl, pH 7.6) using GE Healthcare PD SpinTrap G-25 columns. For each compound, a water-suppressed 1H spectrum was recorded as a reference, followed by waterLOGSY spectra of the compound in the absence and presence of the specified protein. Samples were prepared to a total sample volume of 160 µL in PBS buffer (pH 7.6), with 500 µM compound (unless otherwise specified) from 50 mM DMSO-D6 stock solutions, 10% D2O for signal locking, and 20 µM protein (unless otherwise specified) for samples with protein. After loading into 3 mm Hilgenberg NMR tubes for Bruker Match™ system, samples were briefly centrifuged in a manual benchtop rotor. Spectra were recorded on a Bruker AVIII 700 MHz spectrometer with inverse TCI cryoprobe using a standard waterLOGSY pulse sequence.4 Peaks were assigned using DMSO-D6 as a reference peak at 2.5 ppm.

[5] = target: T5, TRIM24 WT (Homo sapiens, UniProt O15164); experiment: Qualitative WaterLOGSY binding; parameters: key: ✓: √ is assigned to compounds that showed binding; ? is assigned when the result was ambiguous; × is assigned when no-binding was observed; settings: 500 µM compound, 20 µM protein
T5 construct: His6-TRIM24 (BRD-PHD); made in house; host or cells: E. coli BL21 (DE3) Gold
T5 sequence (O15164 with tags, fused parts or gaps): T1 sequence (O15164 with tags, fused parts or gaps)
Method: as §1, §2, §3, §4

[6] = target: T6, TRIM33α N1039F (Homo sapiens, UniProt Q9UPN9, N1039F); experiment: Qualitative WaterLOGSY binding; parameters: key: ✓: √ is assigned to compounds that showed binding; ? is assigned when the result was ambiguous; × is assigned when no-binding was observed; settings: 500 µM compound, 20 µM protein
T6 construct: The TRIM33β cassette (residues 888–1127) was expressed; made in house; host or cells: E. coli BL21 (DE3) Gold
T6 sequence (Q9UPN9 888-1127 N1039F): T2 sequence (Q9UPN9 888-1127) with N152F
Method: as §1, §2, §3, §4

[7] = target: T7, TRIM33α WT (Homo sapiens, UniProt Q9UPN9); experiment: Qualitative WaterLOGSY binding; parameters: key: ✓: √ is assigned to compounds that showed binding; ? is assigned when the result was ambiguous; × is assigned when no-binding was observed; settings: 500 µM compound, 20 µM protein
T7 construct: The TRIM33β cassette (residues 888–1127) was expressed; made in house; host or cells: E. coli BL21 (DE3) Gold
T7 sequence (Q9UPN9 888-1127): T2 sequence (Q9UPN9 888-1127)
Method: as §1, §2, §3, §4

[8] = target: T8, TRIM33β N1039F (Homo sapiens, UniProt Q9UPN9, N1039F); experiment: Qualitative WaterLOGSY binding; parameters: key: ✓: √ is assigned to compounds that showed binding; ? is assigned when the result was ambiguous; × is assigned when no-binding was observed; settings: 500 µM compound, 20 µM protein
T8 construct: The TRIM33β cassette (residues 888–1127) was expressed; made in house; host or cells: E. coli BL21 (DE3) Gold
T8 sequence (Q9UPN9 888-1110 isoform Q9UPN9-2 N1039F): T3 sequence (Q9UPN9 888-1110 isoform Q9UPN9-2 limits assumed) with N152F
Method: as §1, §2, §3, §4

[9] = target: T9, TRIM33β WT (Homo sapiens, UniProt Q9UPN9); experiment: Qualitative WaterLOGSY binding; parameters: key: ✓: √ is assigned to compounds that showed binding; ? is assigned when the result was ambiguous; × is assigned when no-binding was observed; settings: 500 µM compound, 20 µM protein
T9 construct: The TRIM33β cassette (residues 888–1127) was expressed; made in house; host or cells: E. coli BL21 (DE3) Gold
T9 sequence (Q9UPN9 888-1110 isoform Q9UPN9-2 limits assumed): T3 sequence (Q9UPN9 888-1110 isoform Q9UPN9-2 limits assumed)
Source text: To determine whether compounds 3–7 are genuine ligands for TRIM33, we employed an AlphaScreen TruHits screen.[58] The TruHits screen includes streptavidin-coated donor beads and biotinylated acceptor beads, which interact to generate a signal. Compounds that interfere with this control signal, such as fluorescence quenchers, insoluble light scatterers, ^1O2 quenchers, and biotin mimetics, can be identified using this approach. In the TruHits screen,[59] significant assay interference was observed from all five compounds (3–7, Table S21), meaning that AlphaScreen data generated for these compounds are unreliable. We therefore sought to investigate TRIM33 binding of compounds 3 and 4 using ITC and waterLOGSY approaches (Figures S3–6). These compounds were selected as they have a range of reported IC50 values for TRIM33. […] To determine whether these compounds are weak binders to TRIM33β, we subjected them to a waterLOGSY assay against TRIM33β. […] However, the use of different protein isoforms may account for some of the observed discrepancies.
as §1, §2, §3, §4

[10] = test system: TRIM33; parameters: method as in earlier work; settings: isoform later confirmed to be TRIM33α; read-out: reported TRIM33 IC50 (AlphaScreen); cited from earlier work
[11] = target: T3, TRIM33β PHD-BRD; experiment: Isothermal titration calorimetry (ITC); assay type: binding; parameters: The TRIM33β cassette (residues 888–1127) was expressed; made in house; host or cells: E. coli BL21 (DE3) Gold; settings: cell 40 µM compound, syringe 316 µM TRIM33β
Source text: The first data point was excluded from the analysis.
(1 picture or pasted object on this page, not shown here)

[12] = target: BRPF1 BRD; settings: read-out: BRPF Kd (ITC); cited from earlier work
[13] = peptide in assay H31-27K9Me3 (PHD)
[14] = peptide in assay H31-27K9Me3K18Ac (DUAL)
[15] = peptide in assay H31-27K18Ac (BRD)

SMILES | IC50 [1, 13] | IC50 [1, 14] | IC50 [1, 15] | IC50 [2, 13] | IC50 [2, 14] | IC50 [2, 15] | IC50 [3, 13] | IC50 [3, 14] | IC50 [3, 15] | WaterLOGSY binding TRIM24 N980F [4] | WaterLOGSY binding TRIM24 WT [5] | WaterLOGSY binding TRIM33α N1039F [6] | WaterLOGSY binding TRIM33α WT [7] | WaterLOGSY binding TRIM33β N1039F [8] | WaterLOGSY binding TRIM33β WT [9] | IC50 [10] | binding to TRIM33β by ITC [11] | Kd [12]
CC(C)(C)Nc1c(-c2c[nH]c3ncccc23)nc2ccccn12 [Compound 7] | 105 µM | 58 µM | 43.8 µM | > 250 µM | > 250 µM | > 250 µM | > 250 µM | > 250 µM | > 250 µM | – | – | – | – | – | – | – | – | –
O=C(CN1CCOC(c2cncc(-c3cccc(F)c3)n2)C1)NCc1ccccn1 (centres unmarked) [Compound 9] | – | – | – | – | – | – | – | – | – | × | × | ✓ | ✓ | × | ✓ | – | – | –
Cc1nc[nH]c1-c1nc2ccccn2c1NCCN1CCOCC1 [Compound 4] | 52 µM | 23.1 µM | 18.6 µM | > 250 µM | > 250 µM | > 250 µM | > 250 µM | 58.7 µM | 55.3 µM | – | – | – | – | – | – | 3.78 µM | Neither compound showed binding | –
COc1ccc(Nc2c(-c3[nH]cnc3C)nc3ccc(Br)cn23)cc1 [Compound 3] | 1.86 µM | 1.46 µM | 1.76 µM | 1.89 µM | 1.15 µM | 1.58 µM | 1.4 µM | 1.82 µM | 1.49 µM | – | – | – | – | – | – | 0.538 µM | Neither compound showed binding | –
COC(=O)c1ccc2nc(-c3c[nH]c(C)n3)c(NC3CCCCC3)n2c1 [Compound 6] | 17.1 µM | 11.1 µM | 20 µM | > 250 µM | 75.1 µM | 16.6 µM | 6.69 µM | 8.86 µM | 7.91 µM | – | – | – | – | – | – | – | – | –
O=C(Nc1ccccc1)Nc1ccc2cccnc2c1 [Compound 10] | – | – | – | – | – | – | – | – | – | ✓ | ✓ | ✓ | ✓ | ✓ | ✓ | – | – | –
CCCOc1cc(OCCCCN(C)C)cc(Oc2cc3c(cc2NS(=O)(=O)c2ccc(OC)c(OC)c2)n(C)c(=O)n3C)c1 [IACS-9571] | – | – | – | – | – | – | – | – | – | – | – | – | – | – | – | – | – | 0.014 µM
Cn1c(=O)n(C)c2cc(CNCCc3ccc(S(N)(=O)=O)cc3)ccc21 [Compound 8] | – | – | – | – | – | – | – | – | – | × | ✓ | ✓ | ✓ | ? | ✓ | – | – | –
Cc1nc[nH]c1-c1nc2ccccn2c1NC1CCCCC1 [Compound 5] | 3.57 µM | 3.32 µM | 4.21 µM | 2.71 µM | 1.68 µM | 2.74 µM | 3.37 µM | 3.11 µM | 3.16 µM | – | – | – | – | – | – | – | – | –
Cc1cc2c(NC(=O)Nc3ccccc3)cccc2nn1 [Compound 11] | – | – | – | – | – | – | – | – | – | ✓ | ✓ | ✓ | ✓ | ✓ | ✓ | – | – | –
